Test results from US11045457B2, “Piperidinyl-3-(aryloxy)propanamides and propanoates” (priority 2018, dated 2021).

Experiments:
[1] = molecular target: T1, SSTR4 (Homo sapiens (Human), UniProt P31391); assay: Inhibition of forskolin stimulated cAMP in CHO-K1 cells overexpressing SSTR4; type: cell-based
Procedure, shortened: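 Read-out is a HTRF LANCE Ultra cAMP competition using Eu-labelled streptavidin and biotin-cAMP, incubated 60 min at room temperature. It followed a 30 min room-temperature exposure of Kreb's Ringer-washed cells to compound plus forskolin. Potency is expressed as pEC50.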

[2] = molecular target: T1, SSTR4; assay: SSTR4 I-125 somatostatin competition binding assay (membranes from CHO-K1 cells overexpressing SSTR4); details: competition with I-125 labeled somatostatin
[3] = molecular target: SSTR1 (Homo sapiens (Human), UniProt P30872); assay: SSTR1 I-125 somatostatin competition binding assay for selectivity versus SSTR4 (membranes from CHO-K1 cells overexpressing SSTR1); details: competition with I-125 labeled somatostatin, CHO-K1 SSTR1 membranes;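 further: Filter-based radioligand binding, bound label counted by scintillation after 60 min incubation at room temperature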
Sequence of SSTR1 (P30872 whole entry): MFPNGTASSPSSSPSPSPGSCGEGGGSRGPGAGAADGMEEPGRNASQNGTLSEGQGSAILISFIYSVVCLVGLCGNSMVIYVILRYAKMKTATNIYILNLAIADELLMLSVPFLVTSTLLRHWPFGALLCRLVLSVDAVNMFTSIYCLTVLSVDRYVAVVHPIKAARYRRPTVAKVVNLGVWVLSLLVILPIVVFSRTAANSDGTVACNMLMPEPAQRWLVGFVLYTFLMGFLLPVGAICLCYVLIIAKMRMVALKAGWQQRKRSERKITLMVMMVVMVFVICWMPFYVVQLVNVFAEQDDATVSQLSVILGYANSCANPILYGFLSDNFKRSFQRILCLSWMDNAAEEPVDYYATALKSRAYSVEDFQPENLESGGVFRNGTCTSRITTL
Description: Membranes from CHO-K1 cells overexpressing SSTR1 are purchased from Perkin Elmer (catalog number ES-520-M400UA). […] Then 10 μg of SSTR1 membranes in 50 μL assay buffer are added per well. The plate is incubated for 60 minutes at room temperature. […] The contents of the assay plate are transferred to filters with a TomTech harvester and washed 5 times with 20 mM HEPES, 100 mM NaCl. […] The scintillator sheets are melted to the filters using a heat block. The filters are then read in a MicroBeta scintillation counter. Binding Ki curves are generated using Activity Base for Screening Data Management and the results are reported as pIC50.

T1 sequence (P31391 whole entry): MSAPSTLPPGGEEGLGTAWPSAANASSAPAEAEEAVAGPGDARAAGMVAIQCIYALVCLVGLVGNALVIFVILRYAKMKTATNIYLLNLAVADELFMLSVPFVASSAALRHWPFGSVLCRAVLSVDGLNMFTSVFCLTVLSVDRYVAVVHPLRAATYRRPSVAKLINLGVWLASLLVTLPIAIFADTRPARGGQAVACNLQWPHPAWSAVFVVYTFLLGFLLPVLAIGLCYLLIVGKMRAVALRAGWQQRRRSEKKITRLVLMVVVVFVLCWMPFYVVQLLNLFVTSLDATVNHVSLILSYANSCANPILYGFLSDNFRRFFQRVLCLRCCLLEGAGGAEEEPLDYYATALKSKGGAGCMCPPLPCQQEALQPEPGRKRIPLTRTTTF

Row | Compound | SSTR4 Activity pEC50 [1] | SSTR4 Binding pIC50 [2] | SSTR1 Binding pIC50 [3]
1 | CCc1ccccc1OCC(C)(C)C(=O)NC1CCN(CC(=O)c2ccc(Cl)cc2)CC1 [Example 104, N-(1-(2-(4-chlorophenyl)-2-oxoethyl)piperidin-4-yl)-3-(2-ethylphenoxy)-2,2-dimethylpropanamide] | 9.2 | 8.0 | 4.8
2 | CN1CCC(NC(=O)C(C)(C)COc2ncccc2C(F)(F)F)C2(CC2)C1 (stereo not drawn) [Example 114, 2,2-dimethyl-N-(5-methyl-5-azaspiro[2.5]octan-8-yl)-3-((3-(trifluoromethyl)pyridin-2-yl)oxy)propanamide] | 8.0 | 6.9 | 4.6
3 | CN1CC[C@H](NC(=O)C(C)(C)COc2ncccc2C(F)(F)F)[C@@H](F)C1 [Example 117, N-((3S,4S)-3-fluoro-1-methylpiperidin-4-yl)-2,2-dimethyl-3-((3-(trifluoromethyl)pyridin-2-yl)oxy)propanamide] | 7.6 | 6.7 | 4.5
4 | CN1CCC(NC(=O)C(C)(C)COc2ncccc2OC(F)(F)F)C2(CC2)C1 (stereo not drawn) [Example 119, 2,2-dimethyl-N-(5-methyl-5-azaspiro[2.5]octan-8-yl)-3-((3-(trifluoromethoxy)pyridin-2-yl)oxy)propanamide] | 9.0 | 7.3 | 5.0
5 | CN1CC[C@H](NC(=O)C(C)(C)COc2ncccc2C2CC2)[C@@H](F)C1 [Example 123, 3-((3-cyclopropylpyridin-2-yl)oxy)-N-((3S,4S)-3-fluoro-1-methylpiperidin-4-yl)-2,2-dimethylpropanamide] | 7.8 | 7.2 | 4.9
6 | CN1CC[C@H](NC(=O)C(C)(C)COc2ncccc2OC(F)(F)F)[C@@H](F)C1 [Example 124, N-((3S,4S)-3-fluoro-1-methylpiperidin-4-yl)-2,2-dimethyl-3-((3-(trifluoromethoxy)pyridin-2-yl)oxy)propanamide] | 7.6 | 7.4 | 5.1
7 | CN1CC(NC(=O)C(C)(C)COc2ncccc2C(F)(F)F)C2(CC2)C1 (stereo not drawn) [Example 138, 2,2-dimethyl-N-(5-methyl-5-azaspiro[2.4]heptan-7-yl)-3-((3-(trifluoromethyl)pyridin-2-yl)oxy)propanamide] | 8.0 | 7.2 | 5.7
8 | Cc1cccnc1OCC(C)(C)C(=O)N[C@H]1CCN(C)C[C@@H]1C [Example 143, N-((3S,4S)-1,3-dimethylpiperidin-4-yl)-2,2-dimethyl-3-((3-methylpyridin-2-yl)oxy)propanamide] | 7.9 | 6.9 | 4.8
9 | C[C@@H]1C[C@H](NC(=O)C(C)(C)COc2ncccc2C2CC2)CCN1C [Example 147, 3-((3-cyclopropylpyridin-2-yl)oxy)-N-((2R,4R)-1,2-dimethylpiperidin-4-yl)-2,2-dimethylpropanamide] | 8.6 | 7.5 | 5.3
10 | CN1C[C@H](NC(=O)C(C)(C)COc2ncccc2C(F)(F)F)C2(CC2)C1 [Example 148, (R)-2,2-dimethyl-N-(5-methyl-5-azaspiro[2.4]heptan-7-yl)-3-((3-(trifluoromethyl)pyridin-2-yl)oxy)propanamide] | 8.1 | 7.4 | 5.8
11 | CN1C[C@H](NC(=O)C(C)(C)COc2ncccc2OC(F)(F)F)C2(CC2)C1 [Example 150, (R)-2,2-dimethyl-N-(5-methyl-5-azaspiro[2.4]heptan-7-yl)-3-((3-(trifluoromethoxy)pyridin-2-yl)oxy)propanamide] | 8.2 | 7.3 | 5.6
12 | C[C@H]1C[C@@H](NC(=O)C(C)(C)COc2ncccc2OC(F)(F)F)CCN1C [Example 152, N-((2S,4S)-1,2-dimethylpiperidin-4-yl)-2,2-dimethyl-3-((3-(trifluoromethoxy)pyridin-2-yl)oxy)propanamide] | 7.0 | 6.6 | 4.6
13 | C[C@@H]1C[C@H](NC(=O)C(C)(C)COc2ncccc2OC(F)(F)F)CCN1C [Example 179, N-((2R,4R)-1,2-dimethylpiperidin-4-yl)-2,2-dimethyl-3-((3-(trifluoromethoxy)pyridin-2-yl)oxy)propanamide] | 8.1 | 7.4 | 4.8
14 | CC(C)(COc1ccccc1Cl)C(=O)N[C@H]1CCNC[C@@H]1F [Example 187, 3-(2-chlorophenoxy)-N-((3S,4S)-3-fluoropiperidin-4-yl)-2,2-dimethylpropanamide] | 8.8 | 8.4 | 4.8
15 | CN1CC[C@H](NC(=O)C(C)(C)COc2ccccc2Cl)[C@@H](F)C1 [Example 188, 3-(2-chlorophenoxy)-N-((3S,4S)-3-fluoro-1-methylpiperidin-4-yl)-2,2-dimethylpropanamide] | 8.2 | 7.6 | 5.0
16 | C[C@H]1CNCC[C@@H]1NC(=O)C(C)(C)COc1ccccc1Cl [Example 190, 3-(2-chlorophenoxy)-2,2-dimethyl-N-((3S,4S)-3-methylpiperidin-4-yl)propanamide] | 9.8 | 7.6 | 5.3
17 | C[C@@H]1C[C@H](NC(=O)C(F)(F)COc2ncccc2C2CC2)CCN1C [Example 194, 3-((3-cyclopropylpyridin-2-yl)oxy)-N-((2R,4R)-1,2-dimethylpiperidin-4-yl)-2,2-difluoropropanamide] | 8.4 | 7.7 | 4.4
18 | C[C@H]1CN(C)CC[C@@H]1NC(=O)C(C)(C)COc1ccccc1F [Example 202, N-((3S,4S)-1,3-dimethylpiperidin-4-yl)-3-(2-fluorophenoxy)-2,2-dimethylpropanamide] | 7.1 | 7.0 | 5.0
19 | C[C@H]1CNCC[C@@H]1NC(=O)C(F)(F)COc1ncccc1C(F)(F)F [Example 208, 2,2-difluoro-N-((3S,4S)-3-methylpiperidin-4-yl)-3-((3-(trifluoromethyl)pyridin-2-yl)oxy)propanamide] | 8.6 | 7.1 | 4.4
20 | C[C@H]1CNCC[C@@H]1NC(=O)C(F)(F)COc1ncccc1C1CC1 [Example 209, 3-((3-cyclopropylpyridin-2-yl)oxy)-2,2-difluoro-N-((3S,4S)-3-methylpiperidin-4-yl)propanamide] | 9.2 | 7.6 | 4.9
21 | C[C@H]1CNCC[C@@H]1NC(=O)C(F)(F)COc1ncccc1OC(F)(F)F [Example 210, 2,2-difluoro-N-((3S,4S)-3-methylpiperidin-4-yl)-3-((3-(trifluoromethoxy)pyridin-2-yl)oxy)propanamide] | 9.1 | 7.6 | 4.5
22 | C[C@@H]1C[C@H](NC(=O)C(F)(F)COc2ncccc2C2CC2)CCN1 [Example 211, 3-((3-cyclopropylpyridin-2-yl)oxy)-2,2-difluoro-N-((2R,4R)-2-methylpiperidin-4-yl)propanamide] | 8.9 | 7.2 | 4.8
23 | C[C@@H]1C[C@H](NC(=O)C(F)(F)COc2ncccc2OC(F)(F)F)CCN1 [Example 212, 2,2-difluoro-N-((2R,4R)-2-methylpiperidin-4-yl)-3-((3-(trifluoromethoxy)pyridin-2-yl)oxy)propanamide] | 8.6 | 7.4 | 4.5
24 | CC(C)(COc1ccccc1Cl)C(=O)NC1CCNCC1 [Example 213, 3-(2-chlorophenoxy)-2,2-dimethyl-N-(piperidin-4-yl)propanamide] | 8.7 | 7.6 | 4.6
25 | C[C@H]1CNCC[C@@H]1NC(=O)C(F)(F)COc1ccccc1Cl [Example 216, 3-(2-chlorophenoxy)-2,2-difluoro-N-((3S,4S)-3-methylpiperidin-4-yl)propanamide] | 9.4 | 7.7 | 4.8
